Results taken from publication PMC11062922 (Nature Chemical Biology, 2023).
Where “and” joins values, the source holds several entries; their conditions need not be identical. Equal values may be shown once. Read-outs that look alike come from different tables or passages of the source. Each block holds one molecule with its values, some of them ahead of it.

How the values were obtained:
PRKCB = target: T1, PRKCB (Homo sapiens, UniProt P05771); test: Kinobeads full dose-response competition binding: PRKCB; settings: Gene Name PRKCB
T1 construct: endogenous in cells

PRKCD = target: T2, PRKCD (Homo sapiens, UniProt Q05655); test: Kinobeads full dose-response competition binding: PRKCD; settings: Gene Name PRKCD
T2 construct: endogenous in cells

ERBB2 = ERBB2 (2nd target, 2nd value); ref chemicalprobes.org; cited from earlier work
PHKG2 = target: T3, PHKG2 (Homo sapiens, UniProt P15735); test: Kinobeads competition binding, Lestaurtinib control replicates: PHKG2; settings: read-out: Lestaurtinib Drugmatrix value; Gene Name PHKG2; one column per experiment number and replicate (R1-R3)
T3 construct: a mixture of lysates from five cancer cell lines; endogenous in cells
T3 sequence (P15735 1-406): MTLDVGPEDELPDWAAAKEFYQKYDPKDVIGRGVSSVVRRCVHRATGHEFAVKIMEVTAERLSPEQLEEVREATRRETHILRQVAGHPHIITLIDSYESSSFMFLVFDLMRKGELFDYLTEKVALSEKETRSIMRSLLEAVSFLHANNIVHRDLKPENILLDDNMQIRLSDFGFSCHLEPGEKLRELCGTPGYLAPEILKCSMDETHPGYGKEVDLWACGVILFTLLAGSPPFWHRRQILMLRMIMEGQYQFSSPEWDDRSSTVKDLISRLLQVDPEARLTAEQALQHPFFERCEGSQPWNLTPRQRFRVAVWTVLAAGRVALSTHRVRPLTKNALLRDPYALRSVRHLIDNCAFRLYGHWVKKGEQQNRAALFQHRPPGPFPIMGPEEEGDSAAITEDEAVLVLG

ULK3 = target: T4, ULK3 (Homo sapiens, UniProt Q6PHR2); test: Kinobeads two-dose competition binding: ULK3
T4 construct: endogenous in cells

ERN1 = target: T5, ERN1 (Homo sapiens, UniProt O75460); test: Kinobeads two-dose competition binding: ERN1; settings: read-out: Lestaurtinib Drugmatrix value, Gene Name ERN1
T5 construct: endogenous in cells

PRKAG2 = target: T6, PRKAG2 (Homo sapiens, UniProt Q9UGJ0); test: Kinobeads competition binding, Lestaurtinib control replicates: PRKAG2; settings: read-out: Lestaurtinib Drugmatrix value, PRKAG2; Gene Name PRKAG2; one column per experiment number and replicate (R1-R3)
T6 construct: endogenous in cells

PAK6 = target: T7, PAK6 (Homo sapiens, UniProt Q9NQU5); test: Kinobeads competition binding, Lestaurtinib control replicates: PAK6; settings: read-out: Lestaurtinib Drugmatrix value; Gene Name PAK6; one column per experiment number and replicate (R1-R3)
T7 construct: a mixture of lysates from five cancer cell lines; endogenous in cells

[1] = target: T8, endogenous kinases and other proteins enriched by Kinobeads from mixed cancer cell lysates (Homo sapiens, UniProt Q13188); test: Kinobeads pulldown, full dose-response (eight doses); format: binding; settings: target STK3;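 also: competition with Kinobeads ε after inhibitor preincubation in lysate (5 mg/ml protein) for 45 min at 4 °C, DMSO control, doses 0.3–1,000 nM, label-free LC–MS/MS quantification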
T8 construct: endogenous in cells

[2] = target: T9, endogenous kinases and other proteins enriched by Kinobeads from mixed cancer cell lysates (Homo sapiens, UniProt Q6ZSR9); test: as above; format: binding; settings: target Q6ZSR9
T9 construct: endogenous in cells

[3] = target: T10, endogenous kinases and other proteins enriched by Kinobeads from mixed cancer cell lysates (Homo sapiens, UniProt P27448); test: as above; format: binding; settings: target MARK3
T10 construct: endogenous in cells

[4] = target: T11, endogenous kinases and other proteins enriched by Kinobeads from mixed cancer cell lysates (Homo sapiens, UniProt Q9H0K1); test: as above; format: binding; settings: target SIK2
T11 construct: endogenous in cells

[5] = target: T12, endogenous kinases and other proteins enriched by Kinobeads from mixed cancer cell lysates (Homo sapiens, UniProt Q9BZL6); test: as above; format: binding; settings: target PRKD2
T12 construct: endogenous in cells

[6] = target: T13, endogenous kinases and other proteins enriched by Kinobeads from mixed cancer cell lysates (Homo sapiens, UniProt Q9NQS7); test: as above; format: binding; settings: target INCENP
T13 construct: endogenous in cells

[7] = target: T14, endogenous kinases and other proteins enriched by Kinobeads from mixed cancer cell lysates (Homo sapiens, UniProt Q13043); test: as above; format: binding; settings: target STK4
T14 construct: endogenous in cells

[8] = target: T15, endogenous kinases and other proteins enriched by Kinobeads from mixed cancer cell lysates (Homo sapiens, UniProt O14965); test: as above; format: binding; settings: target AURKA
T15 construct: endogenous in cells

[9] = EC50 with Correction, doses in nM, read-out: apparent Kd
[10] = eight-dose curve fit, doses in nM

T2 sequence (Q05655 whole entry): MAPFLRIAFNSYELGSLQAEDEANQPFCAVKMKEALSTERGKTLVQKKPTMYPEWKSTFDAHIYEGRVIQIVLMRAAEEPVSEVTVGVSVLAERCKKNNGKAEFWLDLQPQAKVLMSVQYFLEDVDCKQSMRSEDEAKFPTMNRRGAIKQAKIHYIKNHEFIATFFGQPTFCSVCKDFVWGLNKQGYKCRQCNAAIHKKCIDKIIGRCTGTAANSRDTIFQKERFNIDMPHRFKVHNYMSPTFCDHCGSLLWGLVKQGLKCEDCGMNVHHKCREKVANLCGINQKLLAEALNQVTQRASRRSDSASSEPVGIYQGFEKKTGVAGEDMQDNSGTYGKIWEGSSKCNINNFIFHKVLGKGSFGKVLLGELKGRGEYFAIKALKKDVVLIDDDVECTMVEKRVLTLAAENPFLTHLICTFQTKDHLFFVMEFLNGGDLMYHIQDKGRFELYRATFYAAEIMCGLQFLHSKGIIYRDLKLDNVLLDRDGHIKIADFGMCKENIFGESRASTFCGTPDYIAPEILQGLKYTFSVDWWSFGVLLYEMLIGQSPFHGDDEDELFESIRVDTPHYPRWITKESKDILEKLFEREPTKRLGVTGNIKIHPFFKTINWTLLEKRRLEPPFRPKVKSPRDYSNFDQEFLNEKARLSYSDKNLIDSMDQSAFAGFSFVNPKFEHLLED
T6 sequence (Q9UGJ0 whole entry): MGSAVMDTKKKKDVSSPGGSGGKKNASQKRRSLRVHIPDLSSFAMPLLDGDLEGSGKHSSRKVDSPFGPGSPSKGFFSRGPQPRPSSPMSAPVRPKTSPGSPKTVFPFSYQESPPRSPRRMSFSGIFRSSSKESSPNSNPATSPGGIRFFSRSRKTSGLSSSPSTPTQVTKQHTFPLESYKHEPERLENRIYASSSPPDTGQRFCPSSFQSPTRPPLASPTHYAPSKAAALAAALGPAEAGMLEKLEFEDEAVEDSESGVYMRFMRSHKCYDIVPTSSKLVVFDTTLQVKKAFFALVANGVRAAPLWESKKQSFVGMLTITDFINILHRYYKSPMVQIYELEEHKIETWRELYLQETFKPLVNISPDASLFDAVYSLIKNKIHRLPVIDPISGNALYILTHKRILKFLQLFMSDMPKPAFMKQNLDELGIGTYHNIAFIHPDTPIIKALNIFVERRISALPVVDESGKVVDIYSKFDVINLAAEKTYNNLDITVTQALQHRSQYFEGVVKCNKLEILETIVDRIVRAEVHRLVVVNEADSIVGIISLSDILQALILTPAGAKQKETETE
T6 sequence (Q13131 whole entry partner): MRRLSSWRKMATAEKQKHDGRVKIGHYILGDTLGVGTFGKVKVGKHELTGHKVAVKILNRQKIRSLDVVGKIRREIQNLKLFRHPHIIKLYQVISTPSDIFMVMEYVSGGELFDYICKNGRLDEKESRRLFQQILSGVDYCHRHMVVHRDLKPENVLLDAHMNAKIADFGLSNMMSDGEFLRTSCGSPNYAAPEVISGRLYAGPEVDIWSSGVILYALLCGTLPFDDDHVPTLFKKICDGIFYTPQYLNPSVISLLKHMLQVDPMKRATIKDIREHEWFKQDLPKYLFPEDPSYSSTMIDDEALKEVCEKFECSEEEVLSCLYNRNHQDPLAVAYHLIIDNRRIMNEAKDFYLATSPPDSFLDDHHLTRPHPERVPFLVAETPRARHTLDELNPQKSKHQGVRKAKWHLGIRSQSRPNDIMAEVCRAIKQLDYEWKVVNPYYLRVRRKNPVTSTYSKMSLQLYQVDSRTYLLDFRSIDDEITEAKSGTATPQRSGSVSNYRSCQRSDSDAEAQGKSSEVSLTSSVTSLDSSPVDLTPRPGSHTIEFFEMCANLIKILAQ
T6 sequence (Q9Y478 2-270 partner limits assumed): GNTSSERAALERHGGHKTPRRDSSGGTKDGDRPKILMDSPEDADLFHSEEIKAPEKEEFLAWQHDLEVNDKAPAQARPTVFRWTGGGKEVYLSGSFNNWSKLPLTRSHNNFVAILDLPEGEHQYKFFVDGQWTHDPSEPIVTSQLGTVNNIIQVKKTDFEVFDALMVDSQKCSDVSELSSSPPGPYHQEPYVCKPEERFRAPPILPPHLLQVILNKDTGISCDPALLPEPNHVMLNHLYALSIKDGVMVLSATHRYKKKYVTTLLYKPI
T1 sequence (P05771 whole entry): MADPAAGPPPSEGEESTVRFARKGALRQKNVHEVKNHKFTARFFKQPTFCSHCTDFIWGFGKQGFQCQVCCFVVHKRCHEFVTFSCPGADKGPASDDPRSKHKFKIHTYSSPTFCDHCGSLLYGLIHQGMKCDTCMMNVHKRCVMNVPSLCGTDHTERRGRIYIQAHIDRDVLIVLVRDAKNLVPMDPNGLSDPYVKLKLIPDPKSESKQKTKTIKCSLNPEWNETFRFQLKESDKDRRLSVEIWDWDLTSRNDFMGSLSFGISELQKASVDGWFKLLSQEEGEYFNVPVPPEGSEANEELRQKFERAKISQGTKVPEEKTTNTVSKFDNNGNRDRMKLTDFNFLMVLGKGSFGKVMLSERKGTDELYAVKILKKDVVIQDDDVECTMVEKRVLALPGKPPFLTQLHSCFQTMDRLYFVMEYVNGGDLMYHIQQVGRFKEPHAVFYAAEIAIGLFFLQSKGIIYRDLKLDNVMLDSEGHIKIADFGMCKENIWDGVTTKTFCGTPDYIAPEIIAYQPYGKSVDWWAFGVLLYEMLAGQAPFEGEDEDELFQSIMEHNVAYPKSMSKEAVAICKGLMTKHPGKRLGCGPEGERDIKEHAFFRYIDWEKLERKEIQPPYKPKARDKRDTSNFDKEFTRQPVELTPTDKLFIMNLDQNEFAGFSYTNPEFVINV
T8 sequence (Q13188 whole entry): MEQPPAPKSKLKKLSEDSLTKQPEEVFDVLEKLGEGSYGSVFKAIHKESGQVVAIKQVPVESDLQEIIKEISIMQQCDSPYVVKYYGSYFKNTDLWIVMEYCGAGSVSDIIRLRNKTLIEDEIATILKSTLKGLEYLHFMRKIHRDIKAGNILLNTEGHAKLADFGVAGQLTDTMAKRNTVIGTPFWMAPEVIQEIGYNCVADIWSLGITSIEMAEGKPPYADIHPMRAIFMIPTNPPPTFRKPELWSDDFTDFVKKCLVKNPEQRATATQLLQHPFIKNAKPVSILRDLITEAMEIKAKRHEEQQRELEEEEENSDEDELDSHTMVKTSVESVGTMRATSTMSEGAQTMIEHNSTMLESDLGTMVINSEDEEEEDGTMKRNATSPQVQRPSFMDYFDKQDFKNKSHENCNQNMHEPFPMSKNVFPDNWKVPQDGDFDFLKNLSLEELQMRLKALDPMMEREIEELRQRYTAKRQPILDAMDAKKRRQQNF
T10 sequence (P27448 whole entry): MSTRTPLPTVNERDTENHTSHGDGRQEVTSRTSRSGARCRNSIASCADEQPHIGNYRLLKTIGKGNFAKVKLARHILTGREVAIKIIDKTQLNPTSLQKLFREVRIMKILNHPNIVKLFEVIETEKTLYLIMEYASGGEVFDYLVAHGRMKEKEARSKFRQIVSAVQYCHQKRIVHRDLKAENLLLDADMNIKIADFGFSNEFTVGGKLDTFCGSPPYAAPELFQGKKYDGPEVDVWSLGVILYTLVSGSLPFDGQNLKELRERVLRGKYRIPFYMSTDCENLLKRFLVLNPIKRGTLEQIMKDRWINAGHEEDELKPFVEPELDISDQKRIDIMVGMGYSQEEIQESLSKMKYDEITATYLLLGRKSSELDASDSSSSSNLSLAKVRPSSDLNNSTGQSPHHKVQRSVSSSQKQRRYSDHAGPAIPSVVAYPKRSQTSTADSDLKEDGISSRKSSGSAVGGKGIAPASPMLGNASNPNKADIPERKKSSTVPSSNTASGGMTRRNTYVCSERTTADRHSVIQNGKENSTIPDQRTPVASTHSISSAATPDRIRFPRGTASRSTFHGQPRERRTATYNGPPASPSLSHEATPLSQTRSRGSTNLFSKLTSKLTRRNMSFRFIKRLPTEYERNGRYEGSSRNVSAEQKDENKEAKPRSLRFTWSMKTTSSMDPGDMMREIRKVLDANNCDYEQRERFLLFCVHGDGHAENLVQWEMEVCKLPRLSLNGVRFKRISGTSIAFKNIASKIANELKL
T15 sequence (O14965 whole entry): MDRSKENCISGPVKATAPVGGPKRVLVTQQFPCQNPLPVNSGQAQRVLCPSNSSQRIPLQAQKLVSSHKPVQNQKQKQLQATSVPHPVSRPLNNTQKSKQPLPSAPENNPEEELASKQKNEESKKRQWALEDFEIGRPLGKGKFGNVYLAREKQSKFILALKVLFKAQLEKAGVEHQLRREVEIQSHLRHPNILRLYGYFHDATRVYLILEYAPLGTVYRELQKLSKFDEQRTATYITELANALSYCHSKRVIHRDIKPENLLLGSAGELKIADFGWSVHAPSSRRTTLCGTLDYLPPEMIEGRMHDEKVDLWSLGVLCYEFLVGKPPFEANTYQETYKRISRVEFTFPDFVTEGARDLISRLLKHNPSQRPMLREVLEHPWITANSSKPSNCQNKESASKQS
T9 sequence (Q6ZSR9 whole entry): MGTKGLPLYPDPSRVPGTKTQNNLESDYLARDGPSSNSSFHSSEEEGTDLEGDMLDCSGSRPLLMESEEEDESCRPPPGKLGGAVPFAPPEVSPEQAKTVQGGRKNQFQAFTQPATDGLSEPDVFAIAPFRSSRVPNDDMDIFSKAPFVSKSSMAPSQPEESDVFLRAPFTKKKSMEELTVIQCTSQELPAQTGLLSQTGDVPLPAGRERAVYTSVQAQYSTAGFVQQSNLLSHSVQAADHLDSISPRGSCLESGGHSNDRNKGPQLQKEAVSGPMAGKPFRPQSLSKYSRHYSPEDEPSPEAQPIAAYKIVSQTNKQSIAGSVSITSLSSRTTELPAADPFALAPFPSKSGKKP

Relative Intensity 0.3nM (PRKCB; 0.3nM compound, DMSO = 1): 1.022
Relative Intensity 1nM (PRKCB; 1nM compound, DMSO = 1): 1.013
Relative Intensity 3nM (PRKCB; 3nM compound, DMSO = 1): 1.059
Relative Intensity 10nM (PRKCB; 10nM compound, DMSO = 1): 1.038
Relative Intensity 30nM (PRKCB; 30nM compound, DMSO = 1): 0.9653
Relative Intensity 100nM (PRKCB; 100nM compound, DMSO = 1): 0.9
Relative Intensity 300nM (PRKCB; 300nM compound, DMSO = 1): 0.7943
Relative Intensity 1000nM (PRKCB; 1000nM compound, DMSO = 1): 0.5993
Kd (PRKCB; [9]): 401 nM
EC50 (PRKCB; [10]): 410 nM
Relative Intensity 0.3nM (PRKCD; 0.3nM compound, DMSO = 1): 0.9769
Relative Intensity 1nM (PRKCD; 1nM compound, DMSO = 1): 1.01
Relative Intensity 3nM (PRKCD; 3nM compound, DMSO = 1): 1.114
Relative Intensity 10nM (PRKCD; 10nM compound, DMSO = 1): 1.044
Relative Intensity 30nM (PRKCD; 30nM compound, DMSO = 1): 0.8254
Relative Intensity 100nM (PRKCD; 100nM compound, DMSO = 1): 0.6161
Relative Intensity 300nM (PRKCD; 300nM compound, DMSO = 1): 0.3888
Relative Intensity 1000nM (PRKCD; 1000nM compound, DMSO = 1): 0.1734
Kd (PRKCD; [9]): 124 nM
EC50 (PRKCD; [10]): 124 nM
Structure (SMILES): CCn1c(-c2nonc2N)nc2c(C#CC(C)(C)O)nc(OCCN)cc21 [GSK902056A]

Structure (SMILES): CN(C)C/C=C/C(=O)Nc1cc2c(Nc3ccc(F)c(Cl)c3)ncnc2cc1O[C@H]1CCOC1 [Afatinib]
Potency value (ERBB2): 0.5 nM, 14 nM

Structure (SMILES): C[C@]12O[C@H](C[C@]1(O)CO)n1c3ccccc3c3c4c(c5c6ccccc6n2c5c31)CNC4=O [Lestaurtinib]
potency estimated from few doses (PHKG2): 321 nM
potency estimated from few doses (ULK3; read-out: Lestaurtinib Drugmatrix value, Gene Name ULK3, repeated control pulldowns; each column = experiment id and replicate (Lestaurtinib_02339_R1 ... Lestaurtinib_03260_R3)): 113 nM
potency estimated from few doses (ULK3; read-out: Lestaurtinib Drugmatrix value, Gene Name ULK3; repeated control pulldowns; each column = experiment id and replicate (Lestaurtinib_02339_R1 ... Lestaurtinib_03260_R3)): 218 nM
potency estimated from few doses (ERN1): 176 nM
potency estimated from few doses (PRKAG2): 888 nM (2×) and 629 nM and 352 nM and 850 nM and 720 nM
potency estimated from few doses (PAK6): 151 nM

EC50 [1]: 742 nM
Kd ([1]; read-out: apparent Kd): 683 nM
EC50 [2]: 566 nM
Kd ([2]; read-out: apparent Kd): 493 nM
EC50 [3]: 680 nM
Kd ([3]; read-out: apparent Kd): 670 nM
EC50 [4]: 260 nM
Kd ([4]; read-out: apparent Kd): 140 nM
EC50 [5]: 1010 nM
Kd ([5]; read-out: apparent Kd): 895 nM
EC50 [6]: 150 nM
Kd ([6]; read-out: apparent Kd): 150 nM
EC50 [7]: 628 nM
Kd ([7]; read-out: apparent Kd): 567 nM
EC50 [8]: 1280 nM
Kd ([8]; read-out: apparent Kd): 590 nM
Structure (SMILES): Cn1cc(-c2nc(N[C@@H]3CCCC[C@@H]3N)c(F)c3c2C(=O)NC3)cn1 [TAK659]
